For twelve molecules, Bliss interaction score results are on record in the supplement of paper PMC10627819.

Experiment in all cases: Bliss interaction score (quartile over a dose matrix) (fitness difference); higher = more antagonism (negative = synergy)
One experiment deals with S. aureus DSM 20231. A digest of the protocol:
(§1)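 Growth was read as OD595 when cultures entered stationary phase, and each value was divided by the plate's robust no-drug mean and capped at 1. This normalised ratio is the fitness value, and fitness for each single drug came from the combination data. The Bliss score subtracts the expected fitness, taken as the product, from the observed fitness and is given as quartiles across technical, biological and donor/recipient replicates.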

In another experiment the test system is S. aureus Newman. In short, it runs like this: as §1
For the next experiment, the system named is B. subtilis 168. A digest of the protocol:
as §1

The next experiment has as its system S. pneumoniae D39V. A digest of the protocol: as §1

The structures appear in SMILES notation.
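Further: first quartile when negative (synergy) and third quartile when positive (antagonism).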

In the case of `CC1(C)S[C@@H]2[C@H](NC(=O)[C@H](N)c3ccc(O)cc3)C(=O)N2[C@H]1C(=O)O` [Amoxicillin] + CO[C@@H]1[C@@H](OC(N)=O)[C@@H](O)[C@H](Oc2ccc3c(O)c(NC(=O)c4ccc(O)c(CC=C(C)C)c4)c(=O)oc3c2C)OC1(C)C [Novobiocin], the Bliss interaction score in the experiment with S. aureus DSM 20231 was 0.0568; in the experiment on S. aureus Newman it was -0.0655; with B. subtilis 168 it was 0.0931; in the experiment with S. pneumoniae D39V it was 0.125.
Turning to `CC1(C)S[C@@H]2[C@H](NC(=O)[C@H](N)c3ccc(O)cc3)C(=O)N2[C@H]1C(=O)O` [Amoxicillin] + CO[C@@]12[C@H](COC(N)=O)C3=C(C(=O)C(C)=C(N)C3=O)N1C[C@@H]1N[C@@H]12 [MitomycinC], the Bliss interaction score is -0.0743 with S. aureus DSM 20231, 0.0558 with S. aureus Newman, 0.0389 with B. subtilis 168 and 0.0839 in the experiment with S. pneumoniae D39V.
The matching figures for `CC1(C)S[C@@H]2[C@H](NC(=O)[C@H](N)c3ccc(O)cc3)C(=O)N2[C@H]1C(=O)O` [Amoxicillin] + N[C@@H]1CONC1=O [CycloserineD]: -0.0593, 0.035, 0.187 and -0.108.
The matching figures for `CC1(C)S[C@@H]2[C@H](NC(=O)[C@H](N)c3ccc(O)cc3)C(=O)N2[C@H]1C(=O)O` [Amoxicillin] + O=C(O)[C@H]1/C(=C/CO)O[C@@H]2CC(=O)N21 [Clavulanic]: -0.114, -0.117, -0.152 and -0.0705.
The matching figures for `CC1(C)S[C@@H]2[C@H](NC(=O)[C@H](N)c3ccc(O)cc3)C(=O)N2[C@H]1C(=O)O` [Amoxicillin] + Oc1cc(Cl)ccc1Oc1ccc(Cl)cc1Cl [Triclosan]: 0.028, 0.0346, -0.0443 and -0.0734.
For the molecule `CO/N=C(\C(=O)N[C@@H]1C(=O)N2C(C(=O)[O-])=C(C[N+]3(C)CCCC3)CS[C@H]12)c1csc(N)n1` [Cefepime] + CC1(C)S[C@@H]2[C@H](NC(=O)Cc3ccccc3)C(=O)N2[C@H]1C(=O)O [PenicillinG], the Bliss interaction score in the experiment with S. aureus DSM 20231 is 0.0733; in the experiment on S. aureus Newman, -0.0463; in the experiment on B. subtilis 168 it was -0.0668; in the experiment with S. pneumoniae D39V, -0.0873.
The matching figures for `CO/N=C(\C(=O)N[C@@H]1C(=O)N2C(C(=O)[O-])=C(C[N+]3(C)CCCC3)CS[C@H]12)c1csc(N)n1` [Cefepime] + CC(=O)O[C@H]1C[C@@]2(C)[C@@H](C[C@@H](O)[C@H]3[C@@]4(C)CC[C@@H](O)[C@@H](C)[C@@H]4CC[C@@]32C)/C1=C(\CCC=C(C)C)C(=O)O [Fusidic acid]: 0.062, 0.0735, 0.0845 and 0.174.
`CO/N=C(\C(=O)N[C@@H]1C(=O)N2C(C(=O)[O-])=C(C[N+]3(C)CCCC3)CS[C@H]12)c1csc(N)n1` [Cefepime] + CCC[C@@H]1C[C@@H](C(=O)N[C@@H]([C@H]2O[C@H](SC)[C@H](O)[C@@H](O)[C@H]2O)[C@H](C)Cl)N(C)C1 [Clindamycin]: the Bliss interaction score with S. aureus DSM 20231 came to 0.0679; in the experiment with S. aureus Newman, 0.0778; with B. subtilis 168, 0.0651; with S. pneumoniae D39V, 0.162.
As for `CO/N=C(\C(=O)N[C@@H]1C(=O)N2C(C(=O)[O-])=C(C[N+]3(C)CCCC3)CS[C@H]12)c1csc(N)n1` [Cefepime] + CC[C@H]1OC(=O)[C@H](C)C(=O)[C@H](C)[C@@H](O[C@@H]2O[C@H](C)C[C@H](N(C)C)[C@H]2O)[C@](C)(OC)C[C@@H](C)C(=O)[C@H](C)[C@H]2N(CCCCn3cnc(-c4cccnc4)c3)C(=O)O[C@]12C [Telithromycin], the Bliss interaction score was 0.0789 with S. aureus DSM 20231, 0.0252 in the experiment with S. aureus Newman, 0.122 in the experiment with B. subtilis 168 and -0.0487 in the experiment on S. pneumoniae D39V.
The matching figures for `CO/N=C(\C(=O)N[C@@H]1C(=O)N2C(C(=O)[O-])=C(C[N+]3(C)CCCC3)CS[C@H]12)c1csc(N)n1` [Cefepime] + CC[C@H]1OC(=O)[C@H](C)[C@@H](O[C@H]2C[C@@](C)(OC)[C@@H](O)[C@H](C)O2)[C@H](C)[C@@H](O[C@@H]2O[C@H](C)C[C@H](N(C)C)[C@H]2O)[C@](C)(O)C[C@@H](C)C(=O)[C@H](C)[C@@H](O)[C@]1(C)O [Erythromycin]: 0.0701, 0.0704, 0.0672 and 0.0938.
In the case of `CO/N=C(\C(=O)N[C@@H]1C(=O)N2C(C(=O)[O-])=C(C[N+]3(C)CCCC3)CS[C@H]12)c1csc(N)n1` [Cefepime] + CC[C@H]1OC(=O)[C@H](C)[C@@H](O[C@H]2C[C@@](C)(OC)[C@@H](O)[C@H](C)O2)[C@H](C)[C@@H](O[C@@H]2O[C@H](C)C[C@H](N(C)C)[C@H]2O)[C@](C)(OC)C[C@@H](C)C(=O)[C@H](C)[C@@H](O)[C@]1(C)O [Clarithromycin], the Bliss interaction score came to 0.128 in the experiment with S. aureus DSM 20231, 0.0613 in the experiment with S. aureus Newman, 0.0395 with B. subtilis 168 and 0.07 in the experiment with S. pneumoniae D39V.
The matching figures for `CO/N=C(\C(=O)N[C@@H]1C(=O)N2C(C(=O)[O-])=C(C[N+]3(C)CCCC3)CS[C@H]12)c1csc(N)n1` [Cefepime] + CN(C)[C@@H]1C(O)=C(C(N)=O)C(=O)[C@@]2(O)C(O)=C3C(=O)c4c(O)ccc(Cl)c4[C@@](C)(O)[C@H]3C[C@@H]12 [Clortetracycline]: 0.0809, 0.105, 0.0651 and 0.163.
